In article PMC5847048 (Psychopharmacology, 2017):
Read-outs that look alike come from different tables or passages of the source.

Experiments:
[1] = system: aged mice (22–24 months old); assay: Radial maze working memory task; type: in vivo, mouse
Description: In the radial arm maze task, treatments were administered subcutaneously (s.c.) once a day 60 min prior to testing from the 2 days of habituation to the 12 days of memory testing.
The radial maze (Imetronic system, Pessac, France) was fully automated and enabled by video-tracking automatic testing and recording. Briefly, each mouse was separately assigned to six adjacent arms which were grouped into three pairs (A, B, C). These three pairs were presented repeatedly among the successive trials of each testing session. The location of the food reward varied in each pair according to an alternation rule among successive trials. Namely, among the two arms opened in a specific trial, the food was inserted in the arm which was not visited in the previous trial within the same pair. The mouse must therefore remember which of the two arms was visited in a specific trial until next presentation of the same pair, and so on in order to alternate its choice among successive presentations of any pair. At the beginning of each daily session, the mouse was placed in the central platform of the radial maze with all arms closed. One pair of arms only was opened at the beginning of each trial, and the mouse was required to visit one arm. The door of the non-chosen arm was closed as soon as the mouse reached the end of the chosen arm. The mouse was allowed to run back to the central platform of his own accord, and then, the door of the chosen arm was closed. The mouse remained in the central platform until the following trial (intertrial interval 10 s). Since three pairs were concurrently used, three specific arm visits must be kept in memory by the mouse until their utilization by using short-term working memory. After 2 days of free exploration in the maze (habituation), mice were submitted to 12 consecutive testing sessions: one session of 23 trials (3 “acquisition-only trials,” one by pair, and 20 “acquisition and test trials”) per day, i.e., a total of 276 trials (240 test trials).
Each session consisted of alternate presentations of pairs A, B, and C. The first three trials with each pair were acquisition trials (both arms rewarded). Each of the following trials was at the same time an acquisition trial (for the following trial with the same pair) and a test trial (for the arm visit made during the preceding trial with the same pair); the rewarded arm was the one that has not been visited on the preceding trial with the same pair. Memory demand varied across successive trials according to the retention interval RI (i.e., the number of intervening trials with other pairs between two successive presentations of the same pair). The retention interval for one specific arm visit (e.g., within pair A) depends on the number of concurring trials (i.e., with pairs B and C) occurring till next trial with the same pair (A). Indeed, such a variable amount of interposed trials proportionally increases the delay between acquisition and test and may also generate retroactive interference. There are five levels of retention interval: from 0, corresponding to “no interposed pair,” to 4, corresponding to a sequence of four interposed trials between n-1 and n trials.
During habituation, the time needed for visiting all six arms per session day was measured. During memory testing, memory performance was evaluated according to the percentage of correct alternation responses between successive trials with the same pair in three different manners.

[2] = system: aged mice (18–19 months old); assay: Sequential/spontaneous alternation (SA) working memory task in T-maze; type: in vivo, mouse; settings: ITI 90 s
Description: Treatments were administered per os daily for nine consecutive days for studies involving the CSD and SA tasks. The 8th and the 9th oral administrations were given 60 min before acquisition and test phases in the CSD task, or before the training and the test sessions in the SA task.
The spontaneous alternation (SA) task was performed in independent groups of mice as regards to the CSD and radial maze tasks. The SA task allows investigation of aged-induced working memory impairments (Vandesquille et al. [2011]). In this task, mice are submitted to a series of successive choices in a T-maze. To alternate from trial to trial, animals have to remember at each choice (except the first one) only the previous trial and to reset the interfering information from trial to trial over a series. This resetting mechanism is a main aspect of working memory (Aggleton et al. [1986]; Béracochéa and Jaffard, [1987]; Kesner [2005]).
Behavioral tests were conducted in a gray Plexiglas T-maze. Stem and arms are 35 cm long, 15 cm wide, and 10 cm high. The starting box (10 cm × 12 cm) and each goal arm are separated from the central alley by a vertical sliding door, with opening and closing monitored by a computer. Photoelectric cells allow recording of both the choice of the goal arm (left or right) and the latency (in seconds) that elapsed between the opening of the starting box and the closing of the goal box. The T-maze is located at the center of a room with various allocentric cues (white or black or striped card boards) located on the wall 1 m above the apparatus.
Animals were not food deprived, and no food reinforcement was used. Animals were first submitted to a habituation phase consisting of two free exploration sessions of 10 min each, over two consecutive days (one session per day) in the apparatus with all doors opened. At the end of the habituation phase, all animals were submitted to a training phase, involving a series of seven successive trials separated by a 30-s intertrial interval (ITI). The training phase was aimed at familiarizing the animals with the opening and closing of the doors.
For the training session, animals were submitted to a sequence of seven successive identical trials. At the beginning of a trial, mice were placed in the starting box and after a confinement period (30 s, predefined ITI), the door to the stem was opened. When the mouse entered one of the goal arms, the door was closed and the chosen arm was recorded. After a 30-s confinement period in the chosen arm, the mouse was gently returned to the starting box for a second trial, identical to the first one. To avoid olfactory cues in the apparatus, visible traces of urine were removed and the general procedure was implemented as in the training phase, except that the ITI was extended to 90 s and animals were submitted to a series of […] successive trials. […] Moreover, an 8th trial was added to the series which was separated from the 7th one by a 5-s ITI. […] The alternation score (in percentage) was used as an index of memory performance. An alternation is defined as a visit in a given arm followed by a visit into the other arm. The successive sequence of visits for the seven first trials determines the level of alternation. A percentage of alternation was calculated: number of alternations performed/number maximal of alternation. This percentage is calculated for each mouse.
For the sequential alternation task, mean and standard errors of the mean (SEM) were calculated for each group of treatment. In addition to % alternation drawn over the seven trials of the series, behavioral performances were also expressed in percentage of alternation drawn from blocks of two consecutive trials (block 1: trials 2 + 3; block 2: trials 4 + 5; block 3: trials 6 + 7). The analyses per trial blocks allowed evaluation of proactive interference over the series (Vandesquille et al. [2011], [2013]). Statistical analyses were performed using the Statview 5.0 software. […]

[3] = Description: The sampling times were 30 min, 1, 2, 4, and 6 h.
Plasma was extracted from the blood sample by centrifugation (+ 4 °C, 1500g, 10 min) and stored at − 80 °C. Then, plasma samples were sent in dry ice to Celerion (Switzerland) for the pharmacokinetic analysis.

[4] = S 47445 0.01 mg/kg p.o. alone, n = 12
[5] = S 47445 0.03 mg/kg p.o. alone, n = 12
[6] = S 47445 0.3 mg/kg p.o. alone, n = 12
[7] = S 47445 1.0 mg/kg p.o. alone, n = 12
[8] = S 47445 0.3 mg/kg p.o. alone, repeated (day 10), blood, middle-aged mice

O=C1c2cc3nnn(CCc4cccc(F)c4)c(=O)c3cc2OCN1C1CC1 [S 47445]
Overall memory performance (mean percentage of correct responses over 12 days) ([1]; S 47445 0.3 mg/kg s.c. once a day, aged mice, versus aged vehicle (p ≤ 0.05)): better memory performance as compared to aged vehicle-treated mice | Performance as a function of retention interval (RI 0–4) versus chance level ([1]; S 47445 0.3 mg/kg s.c., aged mice (at least p ≤ 0.01)): remained significantly above chance level regardless the RI level | Performance as a function of proactive interference ([1]; S 47445 0.3 mg/kg s.c., aged mice, data not shown): ameliorated performance whatever the level of proactive interference | Performance as a function of retention interval (RI 0–4) versus chance level ([1]; all other groups (S 47445 0.1 and 1 mg/kg s.c.), aged mice): dropped to chance level above R1 = 1 | Alternation score, 3rd block of trials (trials 6 + 7) [2, 4]: 45.833 ± 9.650 n = 12% | Alternation score, seven first trials of the series [2, 4]: 59.722 ± 2.477 n = 12% | Alternation score, 3rd block of trials (trials 6 + 7) [2, 5]: 50.000 ± 8.704 n = 12% | Alternation score, seven first trials of the series [2, 5]: 61.11 ± 4.738 n = 12% | Alternation score, 3rd block of trials (trials 6 + 7) ([2]; S 47445 0.1 mg/kg p.o. alone, n = 12): 70.833 ± 7.432 n = 12% | Alternation score, seven first trials of the series ([2]; S 47445 0.1 mg/kg p.o. alone, n = 12, 0.1 mg/kg): alternated significantly above vehicles | Alternation score, seven first trials of the series ([2]; S 47445 0.1 mg/kg p.o. alone, n = 12, listed as S47445, 0.1 mg/kg): 65.278 ± 3.815 n = 12 % | Alternation score, 3rd block of trials (trials 6 + 7) [2, 6]: 50.000 ± 8.704 n = 12% | Alternation score, seven first trials of the series [2, 6]: 61.111 ± 2.369 n = 12% | Alternation score, 3rd block of trials (trials 6 + 7) [2, 7]: 58.333 ± 8.333 n = 12% | Alternation score, seven first trials of the series [2, 7]: 59.722 ± 3.217 n = 12% | Mean AUClast [% CV] [3, 8]: 32.1 [7.83] ng h/mL | Mean Cmax [% CV] [3, 8]: 10.2 [13.7] ng/mL | Median Tmax [range] [3, 8]: 1.5 [1–4] h | T1/2z [% CV] [3, 8]: 2.09 [32.0] h | Blood concentration at the active doses used in the pharmacological experiments ([3]; S 47445, limit of quantification 1 ng/ml): below the limit of quantification | tmax ([3]; S 47445, not changed following combination): 1.5 h | Apparent elimination half-life ([3]; mouse, in vivo): 2.1 to 3.6 h | Mean AUClast [% CV] ([3]; mouse, in vivo): 32.6 [23.0] ng h/mL | Mean Cmax [% CV] ([3]; mouse, in vivo): 8.46 [20.8] ng/mL | Median Tmax [range] ([3]; mouse, in vivo): 1.5 [1–2] h | T1/2z [% CV] ([3]; mouse, in vivo): 3.58 [66.9] h | Time after dosing at which Cmax was reached ([3]; mouse, in vivo): 1 to 4 h
